# Laboratory results as given in US10676720B2, “Combinational use of mechanical manipulation and programin derivatives to increase Oct4, Sox2, Nanog or c-Myc expression in fibroblasts” (The Chinese University of Hong Kong, priority 2014, dated 2020).
# “And” between values parts separate entries of the source, which are not always exact repeats. Identical values can stand only once. Like-named read-outs stand apart in the source and are kept apart here.
# Experiments:
# [1] = tested on: Oct4, Sox2 and Nanog expression in embryoid-like cell bodies of CD34+ mouse fibroblasts; assay: qPCR of pluripotent gene expression in embryoid-like bodies of mouse tail fibroblasts; assay type: cell-based; settings: for Oct4, Sox2 and Nanog expression (qPCR, FIG. 5): embryoid-like cell bodies of CD34+ mouse fibroblasts; for Oct4, Sox2 and Nanog expression (qPCR, FIG. 5) / Oct4, Sox2 and Nanog expression (qPCR, FIG. 4): vs untreated bodies and monolayer; for Oct4, Sox2 and Nanog expression (qPCR, FIG. 4): embryoid-like cell bodies treated with 5 μm
# Method: Materials required: Culture medium, supplemented with 10% FBS, 1% PS in DMEM (Invitrogen); Mouse ESC medium, supplemented with 1×B27 (Invitrogen), 1,000 U/mL Mouse Leukemia Inhibitory Factor (LIF) in DMEM/F12 culture medium (Invitrogen); Programin (frozen stock dissolved in DMSO); Working concentration=1-5 μM; Sterile 35 mm non-adhesive culture dish (SPL; 11035).
# 1. Source mouse tail fibroblasts (passage 2-6 and in log phase of growth). Trypsinize the fibroblasts using standard protocols to obtain a suspension of the cells in culture medium.
# 2. Seed the fibroblasts or other somatic cells onto a sterile 35 mm non-adhesive culture dish at density of 1×10^5-1×10^6 cells/cm^2 in 3 mL of culture medium.
# 4. Gently pipette the culture media to prevent the cells from adhering to culture dish surface. Two sessions per day, 2 min for each session, must be performed. A standard 1 mL pipette and plastic tip was used for pipetting the cultures. The pipetting has to done very slowly (approximately 0.5-1 mL/second generates sufficient force to detach cells from non-adhesive culture dish surface).
# 1. The cells would start to aggregate into embryoid-like bodies after day 1. These bodies will grow in numbers and size during the period of culture.
# 2. Gently pipette the culture media to prevent the embryoid-like cell bodies from attaching on culture dish surface.
# 3. Add 1 mL of fresh culture medium.
# 1. Collect cell suspension and pellet cells by centrifugation at 800 rpm for 5 min. […] Wash cell once with mouse ESC medium and Programin (1-5 μM) or programin derivatives.
# 2. Pellet the embryoid-like bodies again and re-suspend them in 3 mL mouse ESC medium and Programin or derivatives thereof.
# 3. Seed the embryoid-like cell bodies onto a sterile 35 mm non-adhesive culture dish.
# 4. Perform daily pipetting twice in a day to prevent the embryoid-like cell bodies from sticking to the culture dish.
# 5. Add 1 mL of fresh mouse ESC medium on day 5 (day 2 post-Programin treatment).
# 2. Harvest the embryoid-like cell bodies for qPCR analysis to validate expression of pluripotent genes: Oct4, Sox2 and Nanog expression. In addition, expression of other key stem cell-associated genes.
# [2] = tested on: Oct4, Sox2, KLF4, c-Myc and Nanog expression in HUCPV cells; settings: HUCPV cells as a monolayer, 0-5 μM for 30 hours
# [3] = tested on: Programin treated embryoid-like cell bodies; settings: treated embryoid-like bodies on 0.1% gelatin, B27 medium, after 3 days, more obvious after 7 days
# Description: (§1) Programin treated embryoid-like cell bodies (1×10^6 cells/10 cm^2) were maintained as a suspension culture in DMEM/F12, 1000U/mL LIF and 1×B27 on non-adhesive culture dishes for 4 days. The embryoid-like cell bodies were then transferred to culture dishes coated with 0.1% gelatin (FIG. 10A).
# [4] = tested on: CD34+ fibroblasts grown on adhesive culture dishes; settings: 5 μM for 3 days
# Description: Tail fibroblasts extracted from the tail of Oct4-EGFP transgenic mice and stained with CD34 (FIG. 2). The cells were sorted by flow cytometry for only those expressing the surface marker CD34.
# [5] = tested on: Oct4-EGFP expression in CD34+ fibroblasts from the tail of an Oct4-EGFP transgenic mouse; settings: embryoid-like cell bodies, 5 μM, 24, 48 and 69 hours
# Description: 1. Harvest the embryoid-like cell bodies for PI and Hoechst staining for confocal analysis. The presence of green fluorescence and Hoechst staining in cells indicate the presence of live PIP cells expressing Oct4-EGFP.
# CD34^+ fibroblasts harvested from the tail of an Oct4-EGFP transgenic mouse were mechanically pipetted and maintained on non-adhesive culture plates so that the cells became aggregated to form embryoid-like bodies (FIG. 3A). The embryoid-like bodies in this study were stained with PI dye to determine the presence of dead cells (red arrows) and Hoechst dye for the presence of live cells (blue arrows) (FIGS. 3A-3D).
# [6] = tested on: Oct4, Sox2, KLF4, c-Myc and Nanog expression in HUCPV cells; settings: HUCPV embryoid-like bodies
# Method: Materials required: HUCPV medium, consisting of 15% ESQ-FBS (Invitrogen) and 1% PS in MEM/F12 (Invitrogen), Essential 6 (Invitrogen) supplemented with 100 ng/mL basic fibroblast growth factor (bFGF) (Invitrogen), Programin or derivatives thereof (frozen stock dissolved in DMSO); Working concentration=1-5 μM; Sterile non-adhesive 24-well culture plate (SPL; 32024).
# Primary human umbilical cord peri-vascular (HUCPV) cells were maintained in HUCPV culture medium and passaged by trypsinization. Only HUCPV cells below cell passage 6 were used.
# HUCPV cultures are trypsinize and dissociate into single cells.
# The dissociated HUCPV cells are re-suspend as 3×10^5 cells in 600 μL of HUCPV medium and seeded into each well of a non-adhesive 24-well culture plate.
# The cells are incubated at 37° C. and 5% CO2 inside a cell incubator.
# On following day, until the end of experiment, the cells were pipetted twice a day to prevent cells attaching onto culture plates which caused the HUCPV cells to aggregate into embryoid-like cell bodies.
# 200 μL of fresh HUCPV medium were added to the cultures, every 2 days. […]
# Thirty hours after Programin treatment, the Programin treated embryoid-like cell bodies were harvested for qPCR analysis to validate expression of the pluripotent genes: Oct4, Sox2 and Nanog. Other key stem cells-associate genes were also analyzed.
# [7] = tested on: Oct4, Nanog, Sox2, c-Myc and KLF4 expression in human skin fibroblasts; settings: 5 μM, 4 days
# Method: Materials required: Fibroblast medium, supplemented with 15% FBS, 1% non-essential amino acids, 1% PS in Eagle's MEM medium (Invitrogen), human ESC medium, supplemented with 20% knockout serum replacement (Invitrogen), 2 mM L-glutamine, 0.1 mM non-essential amino acids, 0.1 mM mercaptoethanol, 10 ng/mL fibroblast growth factor-basic (bFGF), 1% PS in DMEM/F12 (Invitrogen), Programin or derivatives thereof (frozen stock dissolved in DMSO); Working concentration=5 μM, and sterile 35 mm non-adhesive culture dish (SPL; 11035).
# Primary human skin fibroblasts were cultured in fibroblast medium and passaged by trypsinization. Passage 5 fibroblasts were used for experimentation.
# After dissociating the cultures into single cells with trypsin, 2×10^6 cells were resuspended in 3 mL fibroblast medium in non-adhesive 35 mm dish and maintained in 37° C. incubator with 5% CO2.
# Several hours later, aggregates were formed. Gently breakup excessively large aggregates by pipetting.
# The next day, compact aggregates were formed. Again gentry breakup aggregates into smaller size (100-120 μm diameter) by pipetting.
# Three days after cell aggregate/embryoid-like cell body formation, change the medium to human ESC medium supplemented with 5 μM Programin or derivatives thereof.
# Replenish medium with fresh Programin or derivatives thereof 2 days after. […]
# [8] = tested on: Programin-treated embryoid-like cell bodies
# Method: as §1, with “Programin-treated” for “Programin treated”, “1000 U/mL” for “1000U/mL”, “9A). 10 μM Wnt agonist (Cat #681665, Calbiochem) was added to the culture medium (DMEM/F12, 1000U/mL LIF and 1×B27).” for “10A).”
compound,measurement,setting,value
S=c1[nH]cnc2nc[nH]c12 [Derivative 594],"Oct4, Sox2 and Nanog expression (qPCR, FIG. 5)",[1],significantly increased
"c1nc2nc(Nc3ccc(N4CCOCC4)cc3)nc(NC3CCCCC3)c2[nH]1 [programin, 2-(4-Morpholinoanilino)-6-cyclohexylamino-purine]","Oct4, Sox2, KLF4, c-Myc and Nanog expression (qPCR)",[2],did not activate
same,formation of neurons,[3],Neurons were evident
same,Oct4 expression,[4],did not express Oct4
same,cell survival,[4],died
same,Oct4-EGFP expression (confocal microscope),[5],detectable
same,Oct4-EGFP expression (confocal microscope),[5]; listed as Programin,expressed Oct4-EGFP
same,"Oct4, Sox2, KLF4, c-Myc and Nanog expression (qPCR)","[6]; 1-5 μM for 30 hours, vs untreated embryoid-like body controls (0 μM)",significantly enhanced
same,"concentration that induced the highest level of Oct4, Sox2, Klf4 and Nanog","[6]; 30 hours, 1-5 μM tested",4 µM
same,"expression of Oct4, Nanog, Sox2, c-Myc and KLF4 (qPCR)","[7]; human skin fibroblast embryoid-like bodies, vs vehicle and monolayer",higher levels
same,"expression of pluripotency-associated genes Oct4, Sox2, Nanog, KLF4 and c-Myc",[7]; human skin fibroblasts in a monolayer,not in a monolayer
same,"increase in Oct4, Sox2 and Nanog expression","[1]; aggregates/embryoid-like bodies of fibroblasts, compared to controls (unaggregated, untreated cells)",25-200 fold and 20-200 fold
same,increase in expression of E-cadherin,[1]; compared to that of the initial fibroblast,5 fold
same,"increase in Oct4, Sox2 and Nanog expression","[1]; embryoid-like cell bodies exposed to 2-5 μM for 30 hours, compared to an untreated control fibroblast",25-200 fold
same,"Oct4, Sox2 and Nanog expression (qPCR, FIG. 5)",[1],higher
same,"Oct4, Sox2 and Nanog expression (qPCR, FIG. 4)",[1],highest
same,"Oct4, Sox2 and Nanog expression (qPCR, FIG. 4)",[1]; listed as Programin,significantly enhanced
same,reprogramming efficiency,"[1]; mouse somatic cells, takes 7 days to accomplish",approximately 20%
same,fate of treated cells that were not aggregated,[8]; following exposure to the Wnt agonist,underwent cell death
same,formation of bone-like nodules,"[8]; treated embryoid-like bodies on 0.1% gelatin with 10 μM Wnt agonist, after 2-3 days",Bone-like nodules were evident
same,Alizen Red s staining of the nodules,[8]; treated embryoid-like bodies with 10 μM Wnt agonist,osteocytes
Clc1nc(N2CCN(c3ccccc3)CC2)c2[nH]cnc2n1 [Derivative 957],"Oct4, Sox2 and Nanog expression (qPCR, FIG. 5)",[1],significantly increased
Nc1nc2nc[nH]c2c(=S)[nH]1 [Derivative 400],"Oct4, Sox2 and Nanog expression (qPCR, FIG. 5)",[1],significantly increased
Cc1cc(C)n(-c2nc(Cl)nc3[nH]cnc23)n1 [Derivative 959],"Oct4, Sox2 and Nanog expression (qPCR, FIG. 5)",[1],significantly increased
Clc1nc(-n2cccn2)c2nc[nH]c2n1 [Derivative 958],"Oct4, Sox2 and Nanog expression (qPCR, FIG. 5)",[1],significantly increased
Oc1ncnc2[nH]ncc12 [Derivative 237],"Oct4, Sox2 and Nanog expression (qPCR, FIG. 5)",[1],significantly increased
Nc1ncnc2nc[nH]c12 [Derivative 668],"Oct4, Sox2 and Nanog expression (qPCR, FIG. 5)",[1],significantly increased
